# Measured values reported in patent EP0913483A2, “Method and reagent for the determination of creatine kinase” (Roche Diagnostics GmbH, priority 1997, dated 1999).
# Test system: Glucose-6-phosphat-Dehydrogenase
# Assay: Conversion of different hexoses by glucose-6-phosphate dehydrogenase in the presence of NADP+ (photometric)
# Assay type: biochemical
# Conditions: Hexose 50 mmol/l, G6P-DH 10 U/ml, NADP+ added, 37 °C, 340 nm, ca. 40 min, Imidazol·HCl pH 6,6
# Method: Beispiel 1: Umsetzung verschiedener Hexosen mit Glucose-6-phosphat-Dehydrogenase in Gegenwart von NADP^+
# Testansatz: Es wurden in einer Küvette mit einer Schichtdicke von 1 cm jeweils 1,0 ml Reagenz A mit 0,1 ml Reagenz B vermischt und mit einem Spektralphotometer bei 37 °C und 340 nm der Extinktionsverlauf über ca. 40 min verfolgt.
row,Molecule,NADPH-Bildung (Extinktionsverlauf)
1,O=C(CO)[C@@H](O)[C@H](O)[C@H](O)CO [Fructose],keine Extinktionsveränderung meßbar
2,Glucose [reference compound],signifikante NADPH-Bildung
3,Mannose,keine Extinktionsveränderung meßbar
